Assay [1] can be described thus: Metal chelating activity assessed as Cu2+-compound complex formation at 50 uM after 10 mins by UV-Vis spectroscopic method.
The nature of assay [2]: Neuroprotective activity against tetracycline removal-induced cytotoxicity in human MC65 cells assessed as increase in cell viability after 72 hrs by MTT assay. Type of assay: functional, cell-based. Conditions: MC65, 72 h. For orientation: Tetrazolium dyes change colour on reduction, which living cells bring about.
The nature of assay [3]: Metal chelating activity assessed as Zn2+-compound complex formation at 50 uM after 10 mins by UV-Vis spectroscopic method.
The species named for assay [4] is Homo sapiens. Kind of assay: Neuroprotective activity against tetracycline removal-induced cytotoxicity in human MC65 cells assessed as reduction in oxidative stress at 0.3 uM after 48 hrs by DCFH-DA dye based fluorescence assay. Type of assay: functional, cell-based.
Assay [5] in a line: Metal chelating activity assessed as Fe2+-compound complex formation at 50 uM after 10 mins by UV-Vis spectroscopic method.
For assay [6], the species on record is Homo sapiens. Put plainly: Neuroprotective activity against tetracycline removal-induced cytotoxicity in human MC65 cells assessed as reduction in oxidative stress at 32 uM after 48 hrs by DCFH-DA dye based fluorescence assay. Type of assay: functional, cell-based.
Assay [7] concerns N2a. Kind of assay: Neuroprotective activity in mouse N2A cells assessed as induction of neurite outgrowth at 0.3 uM after 48 hrs by fluorescence microscopic analysis. Type of assay: functional, cell-based.
The species named for assay [8] is Homo sapiens. Kind of assay: Neuroprotective activity against tetracycline removal-induced cytotoxicity in human MC65 cells assessed as reduction in oxidative stress at 8 mM after 48 hrs by DCFH-DA dye based fluorescence assay. Type of assay: functional, cell-based.

Activity calls are given as the source filed them. No cut-off for these calls is given here.

As usually defined, the EC50 is the midpoint of the concentration-response curve.

With `COc1cc(/C=C/C(=O)C(Cc2cn(CCCCNC(=O)CCC(=O)NCCCN3CCN(CCCNC(=O)CCN4CCN(CCCN[C@H]5CC[C@@]6(C)C(=CC[C@H]7[C@@H]8CC[C@H]([C@H](C)CCCC(C)C)[C@@]8(C)CC[C@@H]76)C5)CC4)CC3)nn2)C(=O)/C=C/c2ccc(O)c(OC)c2)ccc1O`, the result in assay [1], in assay [3] and in assay [5] was inactive. Besides, the concentration for a half-maximal effect (EC50) in assay [2] was 30.9 nM. For the same compound, in assay [4], the outcome was Active.

In the case of `COc1cc(/C=C/C(=O)C(Cc2cn(CCC(=O)NCCCN3CCN(CCCNC(=O)CCC(=O)NCCCN4CCN(CCCNCCN[C@H]5CC[C@@]6(C)C(=CC[C@H]7[C@@H]8CC[C@H]([C@H](C)CCCC(C)C)[C@@]8(C)CC[C@@H]76)C5)CC4)CC3)nn2)C(=O)/C=C/c2ccc(O)c(OC)c2)ccc1O`, the result in assay [1], in assay [3] and in assay [5] was inactive. In addition, in assay [2], the EC50 was found to be 33.9 nM. Also, the outcome in assay [4] was Active.

Consider `Cc1c(C)c2c(c(C)c1O)CCC(C)(C(=O)O)O2` (stereo not drawn), for which the outcome in assay [6] was Active.

For the compound `COc1cc(/C=C/C(=O)C(Cc2cn(CCC(=O)NCCCN3CCN(CCCNCCN[C@H]4CC[C@@]5(C)C(=CC[C@H]6[C@@H]7CC[C@H]([C@H](C)CCCC(C)C)[C@@]7(C)CC[C@@H]65)C4)CC3)nn2)C(=O)/C=C/c2ccc(O)c(OC)c2)ccc1O`, the outcome in assay [1], in assay [7], in assay [3] and in assay [5] was inactive. Moreover, the concentration giving a half-maximal response (EC50) in assay [2] is 23.9 nM. Further, in assay [4], the result was Active.

As for `CC(=O)N[C@@H](CS)C(=O)O`, the outcome in assay [8] was inactive.

Turning to `COc1cc(/C=C/C(=O)C(Cc2cn(CCCCNC(=O)CCC(=O)NCCCN3CCN(CCCNCCN[C@H]4CC[C@@]5(C)C(=CC[C@H]6[C@@H]7CC[C@H]([C@H](C)CCCC(C)C)[C@@]7(C)CC[C@@H]65)C4)CC3)nn2)C(=O)/C=C/c2ccc(O)c(OC)c2)ccc1O`, the result in assay [1], in assay [3] and in assay [5] was inactive. The EC50 in assay [2] came out at 40.6 nM. Moreover, the result in assay [4] was Active.

Consider `COc1cc(/C=C/C(=O)C(Cc2cn(CCCCC(=O)NCCCN3CCN(CCCNC(=O)CCC(=O)NCCCN4CCN(CCCNCCN[C@H]5CC[C@@]6(C)C(=CC[C@H]7[C@@H]8CC[C@H]([C@H](C)CCCC(C)C)[C@@]8(C)CC[C@@H]76)C5)CC4)CC3)nn2)C(=O)/C=C/c2ccc(O)c(OC)c2)ccc1O`, for which the outcome in assay [1], in assay [3] and in assay [5] was inactive. Also, the EC50 in assay [2] is 94 nM. In addition, the result in assay [4] was Active.

Take `COc1cc(/C=C/C(=O)C(Cc2cn(CCCCC(=O)NCCCN3CCN(CCCNCCN[C@H]4CC[C@@]5(C)C(=CC[C@H]6[C@@H]7CC[C@H]([C@H](C)CCCC(C)C)[C@@]7(C)CC[C@@H]65)C4)CC3)nn2)C(=O)/C=C/c2ccc(O)c(OC)c2)ccc1O`: the outcome in assay [1], in assay [3] and in assay [5] was inactive. Also, the EC50 in assay [2] is 21.5 nM. The result in assay [4] was Active.

For the compound `COc1cc(/C=C/C(=O)C(Cc2cn(CCCCC(=O)NCCCN3CCN(CCCNC(=O)CCN4CCN(CCCN[C@H]5CC[C@@]6(C)C(=CC[C@H]7[C@@H]8CC[C@H]([C@H](C)CCCC(C)C)[C@@]8(C)CC[C@@H]76)C5)CC4)CC3)nn2)C(=O)/C=C/c2ccc(O)c(OC)c2)ccc1O`, the result in assay [1], in assay [3] and in assay [5] was inactive. In assay [2], the EC50 was 64.3 nM. Further, in assay [4], the result was Active.

`COc1cc(/C=C/C(=O)C(Cc2cn(CCNC(=O)CCC(=O)NCCCN3CCN(CCCNCCN[C@H]4CC[C@@]5(C)C(=CC[C@H]6[C@@H]7CC[C@H]([C@H](C)CCCC(C)C)[C@@]7(C)CC[C@@H]65)C4)CC3)nn2)C(=O)/C=C/c2ccc(O)c(OC)c2)ccc1O`: the outcome in assay [1], in assay [3] and in assay [5] was inactive. Also, in assay [2], the 50% effective concentration (EC50) turned out to be 34.2 nM. In assay [4], the result was Active.

`COc1cc(/C=C/C(=O)C(Cc2cn(CCC(=O)NCCCN3CCN(CCCNC(=O)CCN4CCN(CCCN[C@H]5CC[C@@]6(C)C(=CC[C@H]7[C@@H]8CC[C@H]([C@H](C)CCCC(C)C)[C@@]8(C)CC[C@@H]76)C5)CC4)CC3)nn2)C(=O)/C=C/c2ccc(O)c(OC)c2)ccc1O`: the result in assay [1], in assay [3] and in assay [5] was inactive. Moreover, the concentration for a half-maximal effect (EC50) in assay [2] turned out to be 33.7 nM. Further, the outcome in assay [4] was Active.

`COc1cc(/C=C/C(=O)C(Cc2cn(CCNC(=O)CCC(=O)NCCCN3CCN(CCCNC(=O)CCN4CCN(CCCN[C@H]5CC[C@@]6(C)C(=CC[C@H]7[C@@H]8CC[C@H]([C@H](C)CCCC(C)C)[C@@]8(C)CC[C@@H]76)C5)CC4)CC3)nn2)C(=O)/C=C/c2ccc(O)c(OC)c2)ccc1O`: the result in assay [1], in assay [3] and in assay [5] was inactive. Further, in assay [2], the concentration for a half-maximal effect (EC50) worked out at 31.6 nM. The result in assay [4] was Active.

These data come from ChEMBL document CHEMBL4184300, “Design and characterization of bivalent compounds as potential neuroprotectants for Alzheimer's disease: Impact of the spacer on biological activity” (Bioorg Med Chem Lett, 2018).
